Laboratory results as given in US20200069691A1, “HETEROCYCLIC COMPOUNDS AS HIV PROTEASE INHIBITORS” (Merck Sharp & Dohme Corp., priority 2016, published 2020).
pIC50: −log10 of the molar value.

What follows are compounds tested against T1, wild-type HIV-1 protease (Human immunodeficiency virus type 1 group M subtype B, UniProt P04585) (assay: Assay for Inhibition of Microbial Expressed HIV Protease (peptide substrate cleavage, LC-MS/MS readout)). Settings: E. coli expressed wild-type HIV-1 protease, mean of at least two independent experiments, read-out: HIV Pr Enzyme HIV1 PR IC50.
T1 construct: Escherichia coli expressed wild-type HIV-1 protease protein
Type: biochemical
Summary of the method: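 Cleavage of Val-Ser-Gln-Asn-(β-naphthyl)Ala-Pro-Ile-Val (400 μM) by recombinant HIV-1 protease ([…]) ran 1 h at 30 °C after a 30 min room-temperature inhibitor preincubation in 50 mM sodium acetate pH 5.5. Product peak areas by LC-MS/MS gave inhibition; values average at least two independent runs.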

| SMILES | pIC50 |
| --- | --- |
| N=C1NC(c2ccccc2)(c2ccccc2)C(=O)N1Cc1cccc(C(=O)N2Cc3ccc(C(F)(F)F)cc3C2)c1 [Compound 233, 2-imino-5,5-diphenyl-3-(3-{[5-(trifluoromethyl)-1,3-dihydro-2H-isoindol-2-yl]carbonyl}benzyl)-imidazolidin-4-one] | 7.86 |
| N=C1N[C@](CCCC(F)(F)F)(c2ccc(F)cc2)C(=O)N1[C@@H]1CCCc2ccc(C(=O)N3Cc4nccnc4C3)cc21 [Compound 116, (5R)-3-[(1R)-7-(5,7-dihydro-6H-pyrrolo[3,4-b]pyrazin-6-ylcarbonyl)-1,2,3,4-tetrahydro-naphthalen-1-yl]-5-(4-fluoro-phenyl)-2-imino-5-(4,4,4-trifluorobutyl)imidazolidin-4-one] | 7.42 |
| Cc1n[nH]cc1-c1ncc2c(n1)CN(C(=O)c1cc(CN3C(=N)N[C@](CCCC(F)(F)F)(c4ccc(F)cc4)C3=O)ccc1C(F)(F)F)C2 [Compound 27, (5R)-5-(4-fluorophenyl)-2-imino-3-[3-{[2-(3-methyl-1H-pyrazol-4-yl)-5,7-dihydro-6H-pyrrolo[3,4-d]pyrimidin-6-yl]carbonyl}-4-(trifluoromethyl)benzyl]-5-(4,4,4-trifluorobutyl)imidazolidin-4-one] | 8.54 |
| N=C1N[C@](CCC2CC2)(c2ccc(F)cc2)C(=O)N1[C@@H]1CCCc2ccc(C(=O)N3Cc4nccnc4C3)cc21 [Compound 129, (5R)-5-(2-cyclopropylethyl)-3-[(1R)-7-(5,7-dihydro-6H-pyrrolo[3,4-b]pyrazin-6-ylcarbonyl)-1,2,3,4-tetrahydronaphthalen-1-yl]-5-(4-fluorophenyl)-2-iminoimidazolidin-4-one] | 7.15 |
| N=C1NC(c2ccccc2)(c2ccccc2)C(=O)N1Cc1cccc(C(=O)N2CCn3cc(C(=O)C4CC4)nc3C2)c1 [Compound 250, 3-(3-{[2-(cyclopropylcarbonyl)-5,6-dihydroimidazo [1,2-a]pyrazin-7(8H)-yl]carbonyl}benzyl)-2-imino-5,5-diphenylimidazolidin-4-one] | 7.72 |
| CC(C)CCC1(c2ccccc2)NC(=N)N(Cc2cccc(C(=O)N3CCNC(=O)C3)c2)C1=O (centres unmarked) [Compound 351, 4-[(3-{[2-imino-4-(3-methylbutyl)-5-oxo-4-phenylimidazolidin-1-yl]methyl}-phenyl)carbonyl]piperazin-2-one] | 7.06 |
| CN(C)C(=O)C1c2ccccc2CN1C(=O)c1cccc(CN2C(=N)NC(c3ccccc3)(c3ccccc3)C2=O)c1 (centres unmarked) [Compound 299, 2-({3-[(2-imino-5-oxo-4,4-diphenylimidazolidin-1-yl)methyl]phenyl}carbonyl)-N,N-dimethyl-2,3-dihydro-1H-isoindole-1-carboxamide] | 7.36 |
| N=C1NC(c2ccc(F)cc2)(c2ccc(F)cc2)C(=O)N1Cc1ccc(Cl)c(C(=O)N2Cc3cncnc3C2)c1 [Compound 376, 3-[4-chloro-3-(5,7-dihydro-6H-pyrrolo[3,4-d]pyrimidin-6-ylcarbonyl)benzyl]-5,5-bis(4-fluorophenyl)-2-iminoimidazolidin-4-one] | 8.02 |
| COC(=O)Nc1ncc2c(n1)CN(C(=O)c1cc([C@@H](C)N3C(=N)N[C@](CCC(C)C)(c4ccccc4)C3=O)ccc1C(F)(F)F)C2 [Compound 135, methyl (6-{[5-{(1R)-1-[(4R)-2-imino-4-(3-methylbutyl)-5-oxo-4-phenylimidazolidin-1-yl]ethyl}-2-(trifluoromethyl)phenyl]carbonyl}-6,7-dihydro-5H-pyrrolo[3,4-d]pyrimidin-2-yl)carbamate] | 8.89 |
| N=C1NC(c2ccc(F)cc2)(c2ccc(F)cc2)C(=O)N1Cc1cccc(C(=O)N2CCC(n3c(=O)oc4ccccc43)CC2)c1 [Compound 319, 3-{1-[(3-{[4,4-bis(4-fluorophenyl)-2-imino-5-oxoimidazolidin-1-yl]methyl}phenyl)carbonyl]piperidin-4-yl}-1,3-benzoxazol-2(3H)-one] | 7.25 |
| CCCC1(c2ccccc2)NC(=N)N(Cc2cccc(C(=O)N3Cc4cncnc4C3)c2)C1=O (centres unmarked) [Compound 302, 3-[3-(5,7-dihydro-6H-pyrrolo[3,4-d]pyrimidin-6-ylcarbonyl)benzyl]-2-imino-5-phenyl-5-propylimidazolidin-4-one] | 7.34 |
| Cc1ncc2c(n1)CN(C(=O)c1cccc(CN3C(=N)NC(c4ccc(F)cc4)(c4ccc(F)cc4)C3=O)c1)C2 [Compound 254, 5,5-bis(4-fluorophenyl)-2-imino-3-{3-[(2-methyl-5,7-dihydro-6H-pyrrolo[3,4-d]pyrimidin-6-yl)carbonyl]benzyl} imidazolidin-4-one] | 7.69 |
| CC(C)(O)C(=O)N1CCN(C(=O)c2cc(CN3C(=N)N[C@](CCCC(F)(F)F)(c4ccc(F)cc4)C3=O)ccc2C(F)(F)F)CC1 [Compound 90, (5R)-5-(4-fluorophenyl)-3-[3-{[4-(2-hydroxy-2-methylpropanoyl)-piperazin-1-yl]carbonyl}-4-(trifluoromethyl)benzyl]-2-imino-5-(4,4,4-trifluorobutyl)imidazolidin-4-one] | 7.80 |
| CC(C)CCC1(c2ccccc2)NC(=N)N(Cc2cccc(C(=O)N3Cc4ccccc4C3)c2)C1=O (centres unmarked) [Compound 204, 3-[3-(1,3-dihydro-2H-isoindol-2-ylcarbonyl)benzyl]-2-imino-5-(3-methylbutyl)-5-phenylimidazolidin-4-one] | 8.13 |
| CC(C)CC1(c2ccccc2)NC(=N)N(Cc2cccc(C(=O)N3Cc4cncnc4C3)c2)C1=O (centres unmarked) [Compound 253, 3-[3-(5,7-dihydro-6H-pyrrolo[3,4-d]pyrimidin-6-ylcarbonyl)benzyl]-2-imino-5-(2-methylpropyl)-5-phenylimidazolidin-4-one] | 7.70 |
| N=C1NC(c2ccccc2)(c2ccccc2)C(=O)N1Cc1cccc(C(=O)N2CCc3c(Cl)cccc3C2)c1 [Compound 281, 3-{3-[(5-chloro-3,4-dihydroisoquinolin-2(1H)-yl)carbonyl]benzyl}-2-imino-5,5-diphenylimidazolidin-4-one] | 7.51 |
| COC(=O)Nc1ncc2c(n1)CN(C(=O)c1cccc(CN3C(=N)N[C@](CCC(C)C)(c4ccccc4)C3=O)c1)C2 [Compound 183, methyl {6-[(3-{[(4R)-2-imino-4-(3-methylbutyl)-5-oxo-4-phenylimidazolidin-1-yl]methyl}phenyl)carbonyl]-6,7-dihydro-5H-pyrrolo[3,4-d]pyrimidin-2-yl}carbamate] | 8.65 |
| N=C1N[C@](CCCC(F)(F)F)(c2ccc(F)cc2)C(=O)N1Cc1ccc(C(F)(F)F)c(C(=O)N2Cc3cnc(NCC4CC4)nc3C2)c1 [Compound 74, (5R)-3-[3-({2-[(cyclopropylmethyl)amino]-5,7-dihydro-6H-pyrrolo[3,4-d]pyrimidin-6-yl}carbonyl)-4-(trifluoromethyl)benzyl]-5-(4-fluorophenyl)-2-imino-5-(4,4,4-trifluorobutyl)imidazolidin-4-one] | 8.02 |
| N=C1NC(c2ccccc2)(c2ccccc2)C(=O)N1Cc1ccc(Cl)c(C(=O)N2Cc3nccnc3C2)c1 [Compound 362, 3-[4-chloro-3-(5,7-dihydro-6H-pyrrolo[3,4-b]pyrazin-6-ylcarbonyl)benzyl]-2-imino-5,5-diphenylimidazolidin-4-one] | 8.87 |
| CC(C)C[C@]1(c2ccccc2)NC(=N)N([C@H](C)c2cccc(C(=O)N3CCN(C)C(=O)C3)c2)C1=O [Compound 328, 4-[(3-{(1R)-1-[2-imino-4-(2-methylpropyl)-5-oxo-4-phenylimidazolidin-1-yl]ethyl}phenyl)carbonyl]-1-methylpiperazin-2-one] | 7.19 |
